# Experimental data: patent US8778303B2, “99mTc-labeled 19 amino acid containing peptide for use as phosphatidylethanolamine binding molecular probe and radiopharmaceutical” (The Medical College of Wisconsin, Inc., priority 2008, dated 2014)
# “Also recorded” adds a separate entry of the source.
# Assays:
# [1] = Competition assay with phospholipid liposomes on apoptotic cells; assay type: binding; conditions: for binding to apoptotic cells in the presence of PtdE-containing liposomes: increasing concentration of PtdC/PtdE liposomes
# Method: Preparation of liposomes. Liposomes with the following chemical compositions were made: PtdC (100%), PtdC/PtdE (50/50, w/w), PtdC/PtdS (50/50, w/w), PtdC/PtdG (50/50, w/w). Solid phospholipids were weighed to contain 2 mg for each type of lipids in separate glass test tubes (10×140 mm). One ml of chloroform was used to completely dissolve the phospholipid in each tube. The chloroform was evaporated under a stream of nitrogen where the dried phospholipids formed a thin film of residue on the test tube wall. The samples were thoroughly dried under vacuum overnight. The next morning each sample was re-suspended in 2 ml of HEPES buffer (15 mM HEPES, 120 mM NaCl, pH 7.4) at 45° C. Each suspension was sonicated for 2-5 min at 15 sec each cycle until the mixture turned into an opaque appearance, which indicated the formation of multi-laminar liposomes. The samples were kept on ice until use.
# Competition assay. The retention of the binding activity was determined using a competition assay in the presence of PtdE-containing liposomes. PtdC/PtdE liposomes was prepared as described herein. Binding assay was carried out in triplicate in the presence of increasing amount of PtdC/PtdE liposomes, from 1 nM to 10 μM final concentration in 4-fold increments. The radioactivity bound to the cell pellet was determined by gamma counting as described in the precious paragraph. The assay was repeated using liposomes containing other species of closely related phospholipids, including PtdC, PtdG, and PtdS.
# [2] = tested on: radiation-induced cell death; assay: Imaging of radiation-induced cell death after whole-body irradiation; assay type: in vivo, rat; conditions: rats, 15 Gy whole-body ionizing irradiation
# Source text: In an experimental example, 99mTc-Duramycin imaging was used to detect the distribution of radiation-prone tissues after exposure to high-dose ionizing irradiation. […] Control rats were not exposed to ionizing radiation. […] The most radiation-susceptible tissues include the thymus (arrow) and bone marrows (arrow heads and bottom insets).
# [3] = tested on: apoptotic Jurkat lymphocytes; assay: In vitro binding tests, apoptotic vs viable cells; conditions: for binding to apoptotic cells: apoptotic Jurkat lymphocytes
# Method: In vitro binding tests. The PtdE-binding activity of ^99mTc-HYNIC-Duramycin was examined using binding assays in vitro. A good source of exposed PtdE was apoptotic Jurkat lymphocytes incubated with 5 μM final concentration of camptothecin at 37° C. in a humidified atmosphere with 5% CO2. Untreated control or treated cells were harvested by centrifugation at 800 g for 5 min and re-suspended at 2×10^6 per ml. Radiolabeled Duramycin or Duramycin^1 (inactivated Duramycin) was added to each ml of cells at a final concentration of 100 nM, and the binding was allowed to proceed for 5 min at room temperature. The mixture was then loaded onto a layer of Histopaque. After centrifugation at 800 g for 5 min, cell pellet was collected at the bottom of the tube below the Histopaque layer, whereas the media that contained the non-bound radioactivity will remain above Histopaque. The aqueous supernatant was removed by gentle aspiration. The tip of the tube that contains the pellet was cut off using a hot scalpel. Bound radioactivity was determined by direct gamma counting at an energy window of 140±15 keV.
# [4] = listed as 99mTc-HYNIC-Duramycin^1
smiles,measurement,setting,value
"CC(C)=NNc1ccc(C(=O)NCCCC[C@@H]2NC(=O)[C@@H](N)CS[C@@H](C)[C@H]3NC(=O)[C@H](CC(N)=O)NC(=O)CNC(=O)[C@H]([C@@H](O)C(=O)O)NC(=O)[C@@H]4CSC[C@@H](NC(=O)[C@H](CCC(N)=O)NC2=O)C(=O)N[C@H]2CS[C@@H](C)[C@@H](NC(=O)[C@H](Cc5ccccc5)NC(=O)[C@@H]5CCCN5C(=O)CNC(=O)[C@H](Cc5ccccc5)NC(=O)[C@H](CNCCCC[C@@H](C(=O)O)NC3=O)NC2=O)C(=O)N[C@@H](Cc2ccccc2)C(=O)N[C@@H](C(C)C)C(=O)N4)cn1 [^99mTc-HYNIC-Duramycin, metal not drawn]",binding to apoptotic cells in the presence of liposomes of other phospholipids,"[1]; PtdC, PtdG or PtdS liposomes",unable to competitively reduce
same,binding to apoptotic cells in the presence of PtdE-containing liposomes,[1],competitively abolished; also recorded: exclusively and competitively diminished
same,binding to apoptotic cells in the presence of PtdE-containing liposomes,[1]; [4],not competitively diminished
same,detection of radiation-susceptible tissues,[2],Tissues susceptible to radiation-induced cell death were detected
same,binding to apoptotic cells,[3],dramatically enhanced
same,binding to apoptotic cells,[3]; [4],only at background levels
same,radioactivity uptake in viable cells,[3]; viable Jurkat lymphocytes as control,remained near background
